Earlier results, collected in patent US11450405B2, “Techniques for modeling parathyroid gland functionality and calcimimetic drug activity” (Fresenius Medical Care Holdings, Inc., priority 2018, dated 2022).
Read-outs that look alike come from different tables or passages of the source.

Experiments:
[1] = for effect of hemodialysis on the pharmacokinetics: hemodialysis patients
PTH concentration = settings: after the administration of cinacalcet
[2] = listed as Cinacalcet hydrochloride

## C[C@@H](NCCCc1cccc(C(F)(F)F)c1)c1cccc2ccccc12 [cinacalcet]
[1]; administration with food
  bio-availability on administration with food: higher
  peak concentrations on administration with food: higher
  total exposure values on administration with food: higher
[1]; following oral administration
  time at which plasma concentration peaks: 2 to 6 h
[1]
  effect of hemodialysis on the pharmacokinetics: negligible
[1]; [2]
  effect of hemodialysis on the pharmacokinetics: not altered
[1]; moderate to severe hepatic impairment
  higher terminal half-life values in hepatic impairment: 40-70%
[1]; oral administration
  absolute bioavailability: 20-25%
  absorption: ~100%
[1]; single 75 mg dose
  Bio (bioavailability), reference range: 20-25%
  VD, reference range: 1000 to 1250 L
  half-life of distribution t1/2^D, reference value: 6 h
  terminal half-life, reference range: 30 to 40 h
  tmax, reference range: 1 to 6 h
[1]; single 75 mg dose, SD 9.4
  Cmax, mean reference value: 26.6 ng/mL
[1]; single 75 mg dose, SD 148
  mean apparent oral clearance rate CL/F: 314 L/h
[1]; single oral dose of 75 mg
  apparent oral clearance rate CL/F (target): around 314 L/h
  apparent volume of distribution at steady state VD (target): around 1000 L
  distribution half-life tD (target): 6 h
  time until the maximum plasma concentration is reached (target): around 2.3 hours
[1]; steady state
  volume of distribution at steady state: 1000 L
other
  fraction of the drug in the plasma that is protein bound: Around 95%
[2]
  fraction of the drug in the plasma that is protein bound: ~95%
PTH concentration
  time after dosing at which PTH concentration reaches a minimum: 2 to 3 h
